Data taken from US20110045100A1, “Antimalarial Quinolines and Methods of Use Thereof” (GEORGETOWN UNIVERSITY, priority 2008, published 2011).

Key:
[1] = test system: CQS (HB3, GCO3) and CQR (Dd2, FCB) strains of P. falciparum; assay: SYBR Green I antiplasmodial assay, several CQS and CQR strains; type: cell-based, Plasmodium falciparum; conditions: Plasmodium falciparum; read-out: IC50 vs. CQR parasites
From the text: Bennett T. N.; Paguio, M.; Gligorijevic, B.; Seudieu, C.; Kosar, A. D.; Davidson, E.; Roepe, P. D. Novel, rapid, and inexpensive cell-based quantification of antimalarial drug efficacy. Antimicrob. Agents Chemother. 2004, 48, 1807-1810; Smilkstein, M.; Sriwilaijaroen, N.; Kelly, J. X.; Wilairat, P.; Riscoe, M. Simple and inexpensive fluorescence-based technique for high-throughput antimalarial drug screening. Antimicrob. Agents Chemother. 2004, 48, 1803-1806; and Johnson, J. D.; Dennull, R. A.; Gerena, L.; Lopez-Sanchez, M.; Roncal, N. E.; Waters, N.C. Assessment and continued validation of the malaria SYBR green I-based fluorescence assay for use in malaria drug screening. Antimicrob. Agents Chemother. 2007, 51, 1926-1933. […] Drake, N. L.; Creech, H. J.; Garman, J. A.; Haywood, S. T.; Peck, R. M.; van Hook, J. O.; Walton, E. Synthetic antimalrials. The preparation of certain 4-aminoquinolines. J. Am. Chem. Soc. […] Trans. R. Soc. Trop. Med. Hyg. […] J. Parasitol. 1983, 69, 97-105. The selectivity index provides a quantitative measure of the antimalarial activity against CQR strains relative to that against sensitive strains and thus indicates promising drug discovery leads. […] This can be combined with the introduction of a third basic amino function which should further favor accumulation of the drug within the acidic food vacuole of the parasite.
Bennett T. N.; Paguio, M.; Gligorijevic, B.; Seudieu, C.; Kosar, A. D.; Davidson, E.; Roepe, P. D. Novel, rapid, and inexpensive cell-based quantification of antimalarial drug efficacy. Antimicrob. Agents Chemother. 2004, 48, 1807-1810; Smilkstein, M.; Sriwilaijaroen, N.; Kelly, J. X.; Wilairat, P.; Riscoe, M. Simple and inexpensive fluorescence-based technique for high-throughput antimalarial drug screening. Antimicrob. Agents Chemother. 2004, 48, 1803-1806; and Johnson, J. D.; Dennull, R. A.; Gerena, L.; Lopez-Sanchez, M.; Roncal, N. E.; Waters, N.C. Assessment and continued validation of the malaria SYBR green I-based fluorescence assay for use in malaria drug screening. Antimicrob. Agents Chemother. 2007, 51, 1926-1933.
Drug activities were assessed and IC50 were quantified essentially as described previously. Delarue, S.; Girault, S.; Maes, L.; Debreu-Fontaine, M. A.; Labaeid, M.; Grellier, P.; Sergheraert, C. Synthesis and in vitro and in vivo antimalarial activity of new 4-anilinoquinolines. J. Med. Chem. 2001, 44, 2827-2833; and O'Neill, P. M.; Willock, D. J.; Hawley, S. R.; Bray, P. G.; Storr, R. C.; Ward, S. A.; Park, B. K. Synthesis, antimalarial activity, and molecular modeling of tebuquine analogues. J. Med. Chem. 1997, 40, 437-448.

[2] = test system: monomeric heme; assay: Heme affinity measurement, monomeric heme; type: binding; conditions: acidic 40% DMSO
Description: To test whether binding to Hz precursors is also altered for the 4S and 4O derivatives, binding constants were measured as previously described for both μ-oxo dimeric and monomeric heme (FIG. 25). […] J. Am. Chem. Soc. 1988, 110, 4391-4395; Egan, T. J.; Mavuso, W. W.; Ross, D. C.; Marques, H. M. Thermodynamic factors controlling the interaction of quinoline antimalarial drugs with ferriprotoporphyrin IX. J. Inorg. Biochem. 1997, 68, 137-145; and Egan, T. J.; Ncokazi, K. K. Effects of solvent composition and ionic strength on the interaction of quinoline antimalarials with ferriprotoporphyrin IX. J. Inorg. Biochem. 2004, 98, 144-152. Due to the instability of monomeric heme in aqueous solution, the affinity to monomer measured by conventional absorbance experiments can only be estimated using 40% DMSO in water as solvent. Egan, T. J.; Ncokazi, K. K. Effects of solvent composition and ionic strength on the interaction of quinoline antimalarials with ferriprotoporphyrin IX. J. Inorg. Biochem. 2004, 98, 144-152. At appropriately acidic solution pH (≦5.0) FPIX heme is primarily monomeric, whereas at pH 7, appreciable dimer is formed. As shown (FIG. 25), CQ and compounds 88, 93, and 98 all have poor affinity for monomeric heme in acidic 40% DMSO. To further test if CQ interacts with monomeric heme, T1 measurements of the CQ protons were made with samples containing 10 mM CQ and 2 mM hemin chloride in 40% DMSO at pH 5.0. Although the lines are broadened in this solution due to paramagnetic susceptibility, the measured T1's indicate only weak paramagnetic relaxation. For example, the measured T1 for CQ proton 1 in this sample is 0.70 s, whereas at pH 7.0 the T1 for the same proton is 0.039 s.
To measure affinity for monomeric heme, 1.2 mM stock solutions of hemin (sodium salt from Sigma-Aldrich) were prepared in DMSO and stored as […] aliquots. 4.8 μM working solutions were prepared in 40% DMSO/phosphate buffer (fresh stocks prepared daily). Stock solutions of CQ and CQ analogues (diphosphate or dihydrochloride salts) were prepared in 40% DMSO/phosphate buffer and used for the titration experiments (all drugs dilutions were prepared in the same buffer).
1.5 mL cuvettes containing freshly prepared samples of 4.8 μM heme were titrated with increasing concentrations (0-50 μM) of drug. Following each addition, the sample was mixed and heme absorbance then recorded at 402 nm. Control experiments were performed by titrating 4.8 μM heme with similar volumes of solvent and no drug present. […] The absorbance peak analysis was done using Microsoft excel and Ka were extracted from the ΔAbs402 plots via Scatchard analysis using Microsoft Excel and Sigma plot 9.0.1 software.

With `CCN(CC)CCCCOc1ccnc2cc(Cl)ccc12` [compound 93, O-(7-Chloro-4-quinolyl)-4-(N,N-diethylamino)butanol] the IC50 [1] was about 1000 nM and the “affinity for monomeric heme” value [2] was “poor affinity”.
